In US9604982B2, “P2X7 modulators” (Janssen Pharmaceutica NV, priority 2013, dated 2017):
Read-outs that look alike come from different tables or passages of the source.

Molecular target: P2X7 (Homo sapiens (Human), UniProt Q99572)
Experiment: P2X7 antagonism in human peripheral blood mononuclear cells (PBMCs), IL-1β release after LPS + Bz-ATP (ELISA)
Type: cell-based
Details: 0.5 mM Bz-ATP; for remaining activity at 10 µM: read-out: PBMC 10 μM (% control); for PBMC 10 μM (% control): Table 3 (additional runs)
Protocol: Human blood was collected using a blood donor program. […] Cells were incubated for an additional 1.5 hours. […] Data are analyzed and graphed on Graphpad Prism 5. […] The IC50 for each compound is then uploaded into 3DX.

P2X7, sequence (Q99572 whole entry): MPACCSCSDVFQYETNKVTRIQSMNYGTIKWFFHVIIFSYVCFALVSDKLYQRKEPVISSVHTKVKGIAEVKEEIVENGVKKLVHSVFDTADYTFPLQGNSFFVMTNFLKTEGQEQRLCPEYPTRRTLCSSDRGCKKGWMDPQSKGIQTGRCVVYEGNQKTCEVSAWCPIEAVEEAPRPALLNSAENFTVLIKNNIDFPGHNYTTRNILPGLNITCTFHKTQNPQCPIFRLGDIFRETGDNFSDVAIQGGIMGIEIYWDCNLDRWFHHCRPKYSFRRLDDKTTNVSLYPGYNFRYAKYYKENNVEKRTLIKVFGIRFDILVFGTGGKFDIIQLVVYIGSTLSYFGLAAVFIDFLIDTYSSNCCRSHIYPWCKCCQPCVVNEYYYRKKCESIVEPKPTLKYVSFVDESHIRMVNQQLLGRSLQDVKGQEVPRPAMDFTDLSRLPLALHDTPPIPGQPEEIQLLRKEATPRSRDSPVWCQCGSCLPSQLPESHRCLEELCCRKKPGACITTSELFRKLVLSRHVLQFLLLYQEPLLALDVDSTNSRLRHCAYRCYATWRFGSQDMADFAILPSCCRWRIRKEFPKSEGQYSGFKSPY

remaining activity at 10 µM (P2X7, Table 2, 10 μM compound) [%] | PBMC 10 μM (% control) (10 μM compound) | remaining activity at 10 µM (P2X7, Table 3 (additional runs), 10 μM compound) [%] | Compound
9.4 | 9.4 |  | Cc1nc2c(c(-c3ccn[nH]3)n1)C[C@H](C)N(C(=O)c1ccc(F)cc1Cl)C2 (single isomer, unassigned) [Example 92, (S*)-(2-chloro-4-fluorophenyl)(2,6-dimethyl-4-(1H-pyrazol-5-yl)-5,6-dihydropyrido[3,4-d]pyrimidin-7(8H)-yl)methanone]
49.4 |  |  | Cc1nc2c(c(-c3ccn[nH]3)n1)C[C@@H](C)N(C(=O)c1ccc(Cl)cc1F)C2 (single isomer, unassigned) [Example 88, (R*)-(4-chloro-2-fluorophenyl)(2,6-dimethyl-4-(1H-pyrazol-5-yl)-5,6-dihydropyrido[3,4-d]pyrimidin-7(8H)-yl)methanone]
3.9 | 3.9 |  | Cc1nc2c(c(-c3ccn[nH]3)n1)C[C@H](C)N(C(=O)c1ccc(F)c(C(F)(F)F)c1Cl)C2 (single isomer, unassigned) [Example 65, (S*)-(2-chloro-4-fluoro-3-(trifluoromethyl)phenyl)(2,6-dimethyl-4-(1H-pyrazol-5-yl)-5,6-dihydropyrido[3,4-d]pyrimidin-7(8H)-yl)methanone]
6.3 | 6.3 |  | CC(C)c1nc2c(c(-c3ccn[nH]3)n1)C[C@H](C)N(C(=O)c1cccc(C(F)(F)F)c1Cl)C2 (single isomer, unassigned) [Example 103, (S*)-(2-chloro-3-(trifluoromethyl)phenyl)(2-isopropyl-6-methyl-4-(1H-pyrazol-5-yl)-5,6-dihydropyrido[3,4-d]pyrimidin-7(8H)-yl)methanone]
16.4 |  |  | CCc1nc2c(c(-c3ccn[nH]3)n1)C[C@@H](C)N(C(=O)c1cccc(C(F)(F)F)c1Cl)C2 (single isomer, unassigned) [Example 99, (R*)-(2-chloro-3-(trifluoromethyl)phenyl)(2-ethyl-6-methyl-4-(1H-pyrazol-5-yl)-5,6-dihydropyrido[3,4-d]pyrimidin-7(8H)-yl)methanone]
 |  | 73.9 | Cc1nc2c(c(-c3ccn[nH]3)n1)C[C@H](C)N(C(=O)c1cccc(OC(F)(F)F)c1)C2 (single isomer, unassigned) [Example 142, (S*)-(2,6-dimethyl-4-(1H-pyrazol-5-yl)-5,6-dihydropyrido[3,4-d]pyrimidin-7(8H)-yl)(3-(trifluoromethoxy)phenyl)methanone]
2.4 | 2.4 |  | Cc1nc2c(c(-c3ccn[nH]3)n1)C[C@@H](C)N(C(=O)c1cccc(C(F)(F)F)c1F)C2 (single isomer, unassigned) [Example 75, (R*)-(2,6-dimethyl-4-(1H-pyrazol-5-yl)-5,6-dihydropyrido[3,4-d]pyrimidin-7(8H)-yl)(2-fluoro-3-(trifluoromethyl)phenyl)methanone]
21 | 21.0 |  | Cc1nc2c(c(-c3ccn[nH]3)n1)C[C@@H](C)N(C(=O)c1ccc(F)c(Cl)c1Cl)C2 (single isomer, unassigned) [Example 81, (R*)-(2,3-dichloro-4-fluorophenyl)(2,6-dimethyl-4-(1H-pyrazol-5-yl)-5,6-dihydropyrido[3,4-d]pyrimidin-7(8H)-yl)methanone]
-4.4 | −4.4 |  | C[C@@H]1c2ncnc(-c3ccn[nH]3)c2CCN1C(=O)c1ccc(F)c(C(F)(F)F)c1Cl (single isomer, unassigned) [Example 116, (R*)-(2-chloro-4-fluoro-3-(trifluoromethyl)phenyl)(8-methyl-4-(1H-pyrazol-5-yl)-5,6-dihydropyrido[3,4-d]pyrimidin-7(8H)-yl)methanone]
-1 | −1.0 |  | Cc1nc2c(c(-c3ccn[nH]3)n1)C[C@H](C)N(C(=O)c1ccc(F)c(Cl)c1Cl)C2 (single isomer, unassigned) [Example 82, (S*)-(2,3-dichloro-4-fluorophenyl)(2,6-dimethyl-4-(1H-pyrazol-5-yl)-5,6-dihydropyrido[3,4-d]pyrimidin-7(8H)-yl)methanone]
2.6 | 2.6 |  | Cc1nc2c(c(-c3ccn[nH]3)n1)C[C@H](C)N(C(=O)c1cccc(C(F)(F)F)c1C)C2 (single isomer, unassigned) [Example 79, (S*)-(2,6-dimethyl-4-(1H-pyrazol-5-yl)-5,6-dihydropyrido[3,4-d]pyrimidin-7(8H)-yl)(2-methyl-3-(trifluoromethyl)phenyl)methanone]
4.1 | 4.1 |  | C[C@@H]1c2ncnc(-c3ccn[nH]3)c2CCN1C(=O)c1ccc(Cl)c(F)c1Cl (single isomer, unassigned) [Example 122, (R*)-(2,4-dichloro-3-fluorophenyl)(8-methyl-4-(1H-pyrazol-5-yl)-5,6-dihydropyrido[3,4-d]pyrimidin-7(8H)-yl)methanone]
2.8 | 2.8 |  | Cc1nc2c(c(-c3ccn[nH]3)n1)C[C@H](C)N(C(=O)c1cccc(C(F)(F)F)c1Cl)C2 (single isomer, unassigned) [Example 59, (6S*)-7-{[2-Chloro-3-(trifluoromethyl)phenyl]carbonyl}-2,6-dimethyl-4-(1H-pyrazol-5-yl)-5,6,7,8-tetrahydropyrido[3,4-d]pyrimidine]
-4.1 | −4.1 |  | Cc1nc2c(c(-c3ccn[nH]3)n1)C[C@@H](C)N(C(=O)c1ccc(Cl)c(F)c1Cl)C2 [Example 71, (R)-(2,4-dichloro-3-fluorophenyl)(2,6-dimethyl-4-(1H-pyrazol-5-yl)-5,6-dihydropyrido[3,4-d]pyrimidin-7(8H)-yl)methanone]
-2.1 | −2.1 |  | C[C@@H]1c2ncnc(-c3ccn[nH]3)c2CCN1C(=O)c1cccc(C(F)(F)F)c1Cl (single isomer, unassigned) [Example 113, (R*)-(2-chloro-3-(trifluoromethyl)phenyl)(8-methyl-4-(1H-pyrazol-5-yl)-5,6-dihydropyrido[3,4-d]pyrimidin-7(8H)-yl)methanone]
11.7 |  |  | CC(C)c1nc2c(c(-c3ccn[nH]3)n1)C[C@@H](C)N(C(=O)c1cccc(C(F)(F)F)c1Cl)C2 (single isomer, unassigned) [Example 102, (R*)-(2-chloro-3-(trifluoromethyl)phenyl)(2-isopropyl-6-methyl-4-(1H-pyrazol-5-yl)-5,6-dihydropyrido[3,4-d]pyrimidin-7(8H)-yl)methanone]
5 | 5.0 |  | Cc1nc2c(c(-c3ccn[nH]3)n1)C[C@@H](C)N(C(=O)c1cccc(C(F)(F)F)c1Cl)C2 (single isomer, unassigned) [Example 58, (6R*)-7-{[2-Chloro-3-(trifluoromethyl)phenyl]carbonyl}-2,6-dimethyl-4-(1H-pyrazol-5-yl)-5,6,7,8-tetrahydropyrido[3,4-d]pyrimidine]
7.3 | 7.3 |  | COCCn1ccc(-c2nc(C)nc3c2C[C@@H](C)N(C(=O)c2cccc(C(F)(F)F)c2Cl)C3)n1 (single isomer, unassigned) [Example 128, (R*)-(2-chloro-3-(trifluoromethyl)phenyl)(4-(1-(2-methoxyethyl)-1H-pyrazol-3-yl)-2,6-dimethyl-5,6-dihydropyrido[3,4-d]pyrimidin-7(8H)-yl)methanone]
7.5 | 7.5 |  | Cc1nc2c(c(-c3ccn[nH]3)n1)C[C@@H](C)N(C(=O)c1ccc(Cl)cc1Cl)C2 (single isomer, unassigned) [Example 84, (R*)-(2,4-dichlorophenyl)(2,6-dimethyl-4-(1H-pyrazol-5-yl)-5,6-dihydropyrido[3,4-d]pyrimidin-7(8H)-yl)methanone]
13.3 |  |  | C[C@H]1c2ncnc(-c3ccn[nH]3)c2CCN1C(=O)c1ccc(Cl)c(F)c1Cl (single isomer, unassigned) [Example 123, (S*)-(2,4-dichloro-3-fluorophenyl)(8-methyl-4-(1H-pyrazol-5-yl)-5,6-dihydropyrido[3,4-d]pyrimidin-7(8H)-yl)methanone]
-1.5 | −1.5 |  | C[C@@H]1c2ncnc(-c3ccn[nH]3)c2CCN1C(=O)c1ccc(F)c(Cl)c1Cl (single isomer, unassigned) [Example 119, (R*)-(2,3-dichloro-4-fluorophenyl)(8-methyl-4-(1H-pyrazol-5-yl)-5,6-dihydropyrido[3,4-d]pyrimidin-7(8H)-yl)methanone]
-0.8 | −0.8 |  | Cc1nc2c(c(-c3ccn[nH]3)n1)C[C@H](C)N(C(=O)c1ccc(Cl)cc1Cl)C2 (single isomer, unassigned) [Example 85, (S*)-(2,4-dichlorophenyl)(2,6-dimethyl-4-(1H-pyrazol-5-yl)-5,6-dihydropyrido[3,4-d]pyrimidin-7(8H)-yl)methanone]
2.9 | 2.9 |  | C[C@H]1c2ncnc(-c3ccn[nH]3)c2CCN1C(=O)c1ccc(F)c(Cl)c1Cl (single isomer, unassigned) [Example 120, (S*)-(2,3-dichloro-4-fluorophenyl)(8-methyl-4-(1H-pyrazol-5-yl)-5,6-dihydropyrido[3,4-d]pyrimidin-7(8H)-yl)methanone]
-19.2 |  |  | Cc1nc2c(c(-c3ccn[nH]3)n1)C[C@H](C)N(C(=O)c1ccc(F)cc1F)C2 (single isomer, unassigned) [Example 95, (S*)-(2,4-difluorophenyl)(2,6-dimethyl-4-(1H-pyrazol-5-yl)-5,6-dihydropyrido[3,4-d]pyrimidin-7(8H)-yl)methanone]
